We go through three molecules from patent publication US20170128366A1, “PHARMACEUTICAL FORMULATIONS OF CHELATING AGENTS AS A METAL REMOVAL TREATMENT SYSTEM” (ZONEONE PHARMA, INC., priority 2013, published 2017).

A value given as a limit tells only on which side of the number the result lay.

The conditions of data set [1]: cited from earlier work.
The conditions of data set [2]: in vivo, cited from earlier work.
The conditions of data set [3]: patients who take deferasirox; cited from earlier work.
Data set [4] can be described thus: Active loading of DFO or doxorubicin into liposomes without membrane modifier, effect of temperature. To be noted: 10 min, pH 6.5. Type of data set: physicochemical. On the procedure:
Active loading of DFO using no ethanol (or other membrane modifier) was done using liposomes composed of either a fluid-phase lipid (egg PC) or a gel-phase lipid (HSPC), specifically, egg PC liposomes (3:2 Chol, 0.5 M ammonium sulfate, 90 nm) or HSPC liposomes (3:2 Chol, 250 mM ammonium sulfate, 90 nm) were remote loaded with DFO at a temperature range of 40-120° C. (pH 8.0) for either 10 min or 30 min. […] The target drug to lipid ratio was 170 g DFO/mol PL. After the DFO was loaded the tubes were rapidly cooled to room temperature. Unencapsulated DFO was removed by dialysis at 4° C., and drug/PL concentrations were analyzed by HPLC as described in paragraph [0108].
This experiment was done in the absence of a chemical modifier. Liposomes were composed of either a fluid-phase lipid (egg PC) or a gel-phase lipid (HSPC), specifically, egg PC liposomes (3:2 Chol, 0.5 M ammonium sulfate, 90 nm) or HSPC liposomes (3:2 Chol, 0.25 M ammonium sulfate, 90 nm) were remote loaded with DFO or doxorubicin at a temperature range between 40-120° C. for 10 min. Doxorubicin concentration in the loading solution was 5 mg/mL and a target drug to lipid ratio of 170 g DFO/mol PL. DFO was loaded at pH 8 while doxorubicin was loaded at pH 6.5. Unencapsulated drug was removed by dialysis at 4° C., and drug/PL concentrations were analyzed by HPLC as described in paragraph [0108].

On to `CC(=O)N(O)CCCCCNC(=O)CCC(=O)N(O)CCCCCNC(=O)CCC(=O)N(O)CCCCCN` [DFO, Deferoxamine], for which, in data set [1], the water solubility entry is given as “very water-soluble”. For the same molecule, in data set [2], the “absorption after oral administration / from the gastro-intestinal tract” value is given as “poorly absorbed” and the “clearance from the circulation” value is “rapidly cleared”.

Consider `O=C(O)c1ccc(-n2nc(-c3ccccc3O)nc2-c2ccccc2O)cc1` [deferasirox], for which the “risk of renal and hepatic failure” value in data set [3] is “higher risk”. In data set [1], the solubility result is “less than 2 mg/mL” and the water solubility entry was “very low water-solubility”. Moreover, in data set [2], the “absorption after oral administration / from the gastro-intestinal tract” value is recorded as “well absorbed” and the “clearance from the circulation” value is listed as “cleared from the circulation slowly”.

For `COc1cccc2c1C(=O)c1c(O)c3c(c(O)c1C2=O)C[C@@](O)(C(=O)CO)C[C@@H]3O[C@H]1C[C@H](N)[C@H](O)[C@H](C)O1` [doxorubicin], the active loading efficiency in data set [4] (HSPC liposomes (3:2 Chol, 0.25 M ammonium sulfate), 60° C. and above) is greater than 90%. Moreover, the active loading result is reported as “loaded very poorly” in data set [4] (HSPC liposomes, 40° C.) and “high efficiency” in data set [4] (egg PC liposomes (3:2 Chol, 0.5 M ammonium sulfate), 30-110° C.).
